Laboratory results taken from patent publication US9849174B2, “Methods and compositions related to immunogenic fibrils” (The Board of Regents of the University of Texas System, priority 2009, dated 2017).
Entries after “also recorded” stand apart in the source; their conditions may differ. Square brackets hold non-standard residues; d marks the D form. Ends that are not written are not given here.

Columns and labels:
OT-II cells = assay: In vitro activation assay of OT-II lymphocytes on nanofiber-coated wells, cytokines by flow cytometry; format: cell-based, mice; settings: 6 h stimulation; for Cytokine (IFN-γ, IL-2) production by OT-II cells: nanofibers without OVA
Excerpt: OVA-KFE8D Nanofibers Induce Robust CD4 T Helper Cell Responses. OVA (ISQAVHAAHAEINEAGR) (SEQ ID NO: 26), is a well-characterized CD4+ T helper epitope, a portion of which is also recognized by B cells (ISQAVHAAHA) (SEQ ID NO: 58) (Robertson, et al., 2000). Therefore, immunization with OVA leads to both CD4+ T cell activation and antibody production and studies have shown that antibody responses against OVA are CD4+ T celldependent (Rudra, et al., 2012; Robertson, et al., 2000). To assess whether the enantiomeric nature of nanofibers that contributed to enhanced antibody responses also leads to differential CD4+ T helper cell functionality, we utilized transgenic mice (OT-II mice) that have CD4+ T cells (OT-II cells) whose receptors recognize OVA in the context of MHC-class II molecules.30 CD4+ T cell responses were assessed using an in vitro activation assay. Whole lymphocyte extracts (containing antigen-presenting cell, B cell, and CD4+ T cell populations) from OT-II mice were cultured in wells coated with OVA-bearing enantiomers, and 6 h later the production of cytokines IFN-γ and IL-2 were measured using flow cytometry. Lymphocytes stimulated with PBS or free OVA peptide were used as negative and positive controls, respectively.

[1] = tested on: antigen-specific T cells in the draining lymph nodes; assay: CD8 T cell responses after footpad immunization, tetramer staining of draining lymph nodes; format: in vivo, mice
CFSE-labeled OT-II cells = assay: Footpad adoptive transfer of CFSE-labeled OT-II cells one week after immunization; format: in vivo, mice; settings: cells transferred a week after footpad immunization, lymph nodes 24 h later
Excerpt: OVA-KFE8D Nanofibers Prolong Antigen Presentation at the Immunization Site. Previous studies from our lab have shown that peptide nanofiber vaccines (all L-amino acids) are cleared from the immunization site as early as 10 days after vaccination compared to depot forming adjuvants (Chesson, et al., 2014). To investigate whether the reduced proteolytic susceptibility of D-amino acid peptides prolongs antigen-presentation at the immunization site, we used adoptive transfer experiments where mice were injected at the immunization site with CFSElabeled OT-II cells (OVA-specific CD4+ T cells) and measured proliferation of the OT-II cells (in response to existing antigen) via the dilution of the CFSE label using flow cytometry. For these studies, immunizations and adoptive transfers were done in the footpads to maximize antigen depot-OT-II CD4+ T cell interaction and easy collection of draining lymph nodes. Mice were immunized with OVA-KFE8L or OVA-KFE8D nanofibers and a week later CFSE-labeled OT-II cells were transferred at the vaccination site. Twenty-four hours later, mice were sacrificed and draining lymph nodes were extracted.

C57BL/6 mice [2] = assay: Subcutaneous immunization with OVA-KFE8 enantiomers, antibody responses by ELISA (Example 4); format: in vivo; settings: for Dominant antibody isotype: plates coated with free OVA peptide; for Total IgG antibody response: s.c., boost day 28
C57BL/6 mice [3] = assay: Subcutaneous immunization of mice, serum antibody titers and isotypes by ELISA (Example 1); format: in vivo
Experimental: To investigate how fibrillization affected the immunogenicity of OVA, C57BL/6 mice were immunized subcutaneously with the different peptides and boosted with additional peptide at 28 days (see methods). Serum was collected seven days after the boost, and levels of various immunoglobulins were measured.
Immunizations. […] Stock solutions were then diluted in sterile, endotoxin-free PBS to working concentrations. […] CFA-adjuvanted groups received the same volume and total peptide dose, prepared by emulsifying peptide/PBS solutions 1:1 in CFA. […] CFA groups were boosted in incomplete Freund's adjuvant (IFA). Mice receiving mixtures of Q11 and OVA received 100 nmol of each peptide in the first injection and 50 nmol of each in the second. Seven days after the boost, the mice were sacrificed, and sera and spleens were harvested.
Determination of antibody titers. High-binding ELISA plates (eBioscience) were coated with either 20 μg/mL peptide in PBS or PBS alone (for uncoated background subtraction) overnight at 4° C. […] To determine titers for each antiserum, background absorbance values from uncoated wells were subtracted from coated wells, and net absorbances were compared to cutoff values. The cutoff consisted of the mean plus three times the standard deviation of the negative control group (mice receiving OVA without adjuvant) for each corresponding dilution. Any sample dilutions having absorbances above this cutoff value were considered positive readings. The titer was considered as the highest dilution for which it and all lower dilutions had positive readings. If no positive dilutions were present the titer was considered to be 10^2. […] Antibody isotypes were analyzed similarly using a mouse monoclonal antibody kit containing goat anti-mouse IgG1, IgG2a, IgG2b, IgG3, and IgM (Sigma).

[4] = ranges: high and low values among three batches for each peptide
Experimental: Endotoxin levels of all formulations were tested using a Limulus Amebocyte Lystae (LAL) chromogenic end point assay (Lonza, USA).
To account for batch-to-batch variability three different sets of peptides were synthesized for immunizing mice.

[5] = parameters: species or system mice; settings: mouse, in vivo
Excerpt: Peptide assemblies (stained brown and indicated by arrows) were found at the cortex of the lymph nodes by wk 1 and continued to persist up to wk 6. […] Although the mechanism of trafficking is unknown, co-staining for macrophages, dendritic cells, or B cells might provide further insights into the uptake and processing of these peptides in vivo.
Immunohistochemistry Freshly dissected skeletal muscle and inguinal lymph nodes were fixed overnight with 4% formaldehyde in phosphate-buffered saline (pH 7.2) and the tissue was processed and embedded in paraffin at the Human Tissue Resource Center (University of Chicago). The paraffin blocks were cut on a microtome (Leica, USA) into 4 μm thick sections and were deparaffinized with xylene and rehydrated with gradient ethanol. The sections were boiled in 10 mM sodium citrate solution (pH 6.0) for 10 min to retrieve the antigens and blocked with 5% BSA in PBS for 1 hr. The sections were then incubated with Horseradish Peroxidase Avidin D (Vector Laboratories, CA) for 3 hrs, and the biotin was visualized using a peroxidase substrate diaminobenzidine kit (Vector Laboratories, CA). The sections were also counterstained with Mayer's hematoxylin solution (Sigma-Aldrich, USA) for 10 mins. The slides were dehydrated with gradient ethanol and xylene and mounted with Permount Mounting Medium (Fisher Scientific, PA). Images were acquired using a Zeiss Axioskop at the Microscopy Core Facility (University of Chicago).

C57BL/6 mice [6] = assay: Long-term serum antibody ELISA after immunization with Q11-linked peptides (Example 2); settings: boost at wk 4
Experimental: The dose dependence and longevity of the antibody response to OVA-Q11 was further investigated and antibody responses against the malarial peptide epitope (NANP)3 coupled to Q11 were also characterized. Mice were immunized with two different doses of OVA-Q11 (100 nmol and 50 nmol), or 100 nmol of (NANP)3-Q11 and boosted with half the dose at wk 4. Mice were bled on a weekly basis up to wk 6, once at wk 8, and once every four weeks thereafter.
Animals and Immunizations Peptides were dissolved in sterile water (8 mM stock), incubated overnight at 4° C., and diluted in sterile PBS (2 mM working concentration) prior to immunizations. For the malaria peptide, (NANP)3-Q11, the formulations were incubated in PBS overnight to ensure complete fibril formation. […] Female C57BL/6 mice (6-8 weeks old, Taconic Farms, IN) were immunized subcutaneously with two 50 μL injections in the back, with each injection containing 100 nmol of peptide. […]
Determination of Antibody Production ELISA plates (eBioscience) were coated with 20 μg/mL of peptide or 0.5 μg/mL of whole protein in PBS overnight at 4° C. […] The reaction was stopped using 50 μL of 1 M phosphoric acid and 100 μL of the solution was transferred to fresh plates and absorbance values were read at 450 nm. Absorbance values of PBS (no antigen) coated wells were subtracted to account for background. […]

[7] = tested on: KO mice lacking both the αβ and γδ receptors; assay: Immunization of T cell receptor KO mice, antibody production; format: in vivo; settings: over 6 wks
Excerpt: To confirm the necessity of T cells, KO mice lacking both the αβ and γδ receptors for CD4^+ T cells were immunized with OVA-Q11 along with wild type controls. […] The wild type control mice responded as expected. […] To ensure that the KO mice are capable of eliciting immune responses, they were immunized with a T-independent antigen, NP-Ficoll. […] This finding might not be surprising because OVA is a strong MHC class II peptide, containing both B and T cell determinants.

CC(=O)N[C@H](Cc1ccccc1)C(=O)N[C@H](CCCCN)C(=O)N[C@H](Cc1ccccc1)C(=O)N[C@H](CCC(=O)O)C(=O)N[C@H](Cc1ccccc1)C(=O)N[C@H](CCCCN)C(=O)N[C@H](Cc1ccccc1)C(=O)N[C@H](CCC(=O)O)C(N)=O [KFE8(D), Ac-^DF^DK^DF^DE^DF^DK^DF^DE-Am]
Cytokine (IFN-γ, IL-2) production by OT-II cells (OT-II cells): no cytokine production

CC(=O)N[C@@H](Cc1ccccc1)C(=O)N[C@@H](CCCCN)C(=O)N[C@@H](Cc1ccccc1)C(=O)N[C@@H](CCC(=O)O)C(=O)N[C@@H](Cc1ccccc1)C(=O)N[C@@H](CCCCN)C(=O)N[C@@H](Cc1ccccc1)C(=O)N[C@@H](CCC(=O)O)C(N)=O [KFE8(L), Ac-FKFEFKFE-Am]
Cytokine (IFN-γ, IL-2) production by OT-II cells (OT-II cells): no cytokine production

H2N-FKFEFKFEGGAAYSIINFEKL-Am (H-FKFEFKFEGGAAYSIINFEKL-NH2; not fully specified (some residues)) [SIN-KFE8(L)]
Memory CD8 T cell response: antigen-specific T cells in lymph nodes, compared with the enantiomer ([1]; boost day 28, evaluated day 32): significantly higher numbers of antigen-specific T cells | Effector and memory CD8+ T cell responses / tetramer+ CD8 T cells ([1]; mouse, in vivo): robust effector and memory CD8+ T cell responses; also recorded: higher numbers of tetramer+CD8 T cells

H2N-ISQAVHAAHAEINEAGRSGSGFKFEFKFE-Am (H-ISQAVHAAHAEINEAGRSGSGFKFEFKFE-NH2; not fully specified (some residues)) [OVA-KFE8(L)]
IFN-γ production by OT-II cells compared to wells coated with PBS or bare nanofibers (OT-II cells): significantly higher levels | IL-2 production by OT-II cells compared to wells coated with PBS or bare nanofibers (OT-II cells): significantly higher levels | Transferred OT-II cells that had proliferated (shift in CFSE intensity) (CFSE-labeled OT-II cells): only background levels of proliferation | Dominant antibody isotype (C57BL/6 mice [2]): IgG1

H2N-ISQAVHAAHAEINEAGRSGSG^DF^DK^DF^DE^DF^DK^DF^DE-Am (H-ISQAVHAAHAEINEAGRSGSG[dF][dK][dF][dE][dF][dK][dF][dE]-NH2; SMILES CC[C@H](C)[C@H](N)C(=O)N[C@@H](CO)C(=O)N[C@@H](CCC(N)=O)C(=O)N[C@@H](C)C(=O)N[C@H](C(=O)N[C@@H](Cc1c[nH]cn1)C(=O)N[C@@H](C)C(=O)N[C@@H](C)C(=O)N[C@@H](Cc1c[nH]cn1)C(=O)N[C@@H](C)C(=O)N[C@@H](CCC(=O)O)C(=O)N[C@H](C(=O)N[C@@H](CC(N)=O)C(=O)N[C@@H](CCC(=O)O)C(=O)N[C@@H](C)C(=O)NCC(=O)N[C@@H](CCCNC(=N)N)C(=O)N[C@@H](CO)C(=O)NCC(=O)N[C@@H](CO)C(=O)NCC(=O)N[C@H](Cc1ccccc1)C(=O)N[C@H](CCCCN)C(=O)N[C@H](Cc1ccccc1)C(=O)N[C@H](CCC(=O)O)C(=O)N[C@H](Cc1ccccc1)C(=O)N[C@H](CCCCN)C(=O)N[C@H](Cc1ccccc1)C(=O)N[C@H](CCC(=O)O)C(N)=O)[C@@H](C)CC)C(C)C) [OVA-KFE8(D)]
Difference in IFN-γ and IL-2 production / CD4+ T cell activation between the enantiomers (OT-II cells): no significant differences | IFN-γ production by OT-II cells compared to wells coated with PBS or bare nanofibers (OT-II cells): significantly higher levels | IL-2 production by OT-II cells compared to wells coated with PBS or bare nanofibers (OT-II cells): significantly higher levels | Antibody isotype levels compared to OVA-KFE8(L) (C57BL/6 mice [2]; IgG2a, IgG2b, IgG3, IgM, IgA): Significantly higher levels of all antibody isotypes | Anti-OVA antibodies on plates coated with free OVA peptide compared to OVA-KFE8(L) (C57BL/6 mice [2]; mouse, in vivo): higher levels of anti-OVA antibodies; also recorded: Significantly higher levels of antibodies | IgG2a, IgM, and IgA production compared to OVA in ISA-720 (C57BL/6 mice [2]; mouse, in vivo): significantly higher | OVA-specific antibodies compared to OVA-KFE8(L), SGSG-KFE8 control wells subtracted (C57BL/6 mice [2]; mouse, in vivo): significantly higher levels of OVA-specific antibodies | Dominant antibody isotype (C57BL/6 mice [2]): IgG1 | Total IgG antibody response (C57BL/6 mice [2]): robust antibody responses | Antibody levels compared to OVA-KFE8(L) nanofibers or OVA in ISA-720 (C57BL/6 mice [2]; series of serum dilutions): Significantly higher levels of total IgG | Antibody levels pre-boost compared to OVA-KFE8(L) (C57BL/6 mice [2]; week 2 up to the boost at week 4): significantly higher levels of antibodies

H2N-^DF^DK^DF^DE^DF^DK^DF^DEGGAAYSIINFEKL-Am [SIN-KFE8(D)]
Effector CD8 T cell response: antigen-specific T cells in draining lymph nodes, compared with the enantiomer ([1]; footpad, boost day 5, evaluated day 8): significantly lower numbers of antigen-specific T cells

H-ISQAVHAAHAEINEAGR-OH [OVA, H2N-ISQAVHAAHAEINEAGR-OH, reference compound]
Total IgG response (C57BL/6 mice [3]; peptide in PBS without added adjuvant, s.c., boost day 28, serum 7 days after boost): did not raise detectable IgG; also recorded: did not elicit a response | IgG titer (C57BL/6 mice [3]; without adjuvant, baseline level of detection): 10^2 | Total IgG antibody response (C57BL/6 mice [2]): did not raise any detectable IgG

ISQAVHAAHAEINEAGRSGSGQQKFQFQFEQQ-NH2 (C-terminus assumed) [O-Q11]
Endotoxin [4]: 0.08-0.28 EU/mL | Localization of peptide assemblies [5]: localized to the draining lymph nodes | Persistence of peptide assemblies in lymph nodes [5]: ≤ 6 wk | Time at which peptide assemblies were found at the cortex of the lymph nodes [5]: ≤ 1 wk

NANPNANPNANPSGSGQQKFQFQFEQQ [(NANP)3-Q11]
Spike in antibody levels after the boost (C57BL/6 mice [6]; 100 nmol): no spike in antibody levels | Time for which antibodies were detectable (C57BL/6 mice [6]): up to 28 wks | Antibody production in T cell receptor KO mice [7]: no antibody production
